Measured values published in PubChem BioAssay (NCI).
Several values for one entry are separate records, joined by “and”; a condition that tells them apart may be missing. Identical values can stand only once.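 Where inhibition never reached the appropriate level, the endpoint shown equals the highest concentration tested. Otherwise, values were interpolated linearly from a five-concentration, 48-hour dose response in 96-well plates. The concentration for 50% growth inhibition is given as GI50. TGI: total growth inhibition.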

How the values were obtained:
Assay in all cases: DTP human tumour cell line panel, 48 h
LXFL 529 NSCLC = test system: LXFL 529 NSCLC
CCRF-CEM leukemia = test system: CCRF-CEM leukemia
OVCAR-5 ovarian = test system: OVCAR-5 ovarian
DLD-1 colon = test system: DLD-1 colon
SK-MEL-5 melanoma = test system: SK-MEL-5 melanoma
SF-295 CNS = test system: SF-295 CNS
HL-60(TB) leukemia = test system: HL-60(TB) leukemia
SW-620 colon = test system: SW-620 colon
UACC-62 melanoma = test system: UACC-62 melanoma
HOP-18 NSCLC = test system: HOP-18 NSCLC
NCI-H23 lung = test system: NCI-H23 lung

Structure (SMILES) | TGI (LXFL 529 NSCLC) | TGI (CCRF-CEM leukemia) | TGI (OVCAR-5 ovarian) | TGI (DLD-1 colon) | TGI (SK-MEL-5 melanoma) | TGI (SF-295 CNS) | TGI (HL-60(TB) leukemia) | TGI (SW-620 colon) | TGI (UACC-62 melanoma) | TGI (HOP-18 NSCLC) | TGI (NCI-H23 lung) | GI50 (CCRF-CEM leukemia) | GI50 (OVCAR-5 ovarian) | GI50 (SK-MEL-5 melanoma) | GI50 (SF-295 CNS) | GI50 (HL-60(TB) leukemia) | GI50 (SW-620 colon) | GI50 (UACC-62 melanoma) | GI50 (NCI-H23 lung)
Cc1c(Cl)cccc1NC(=O)C(=O)c1c(O)c2ccc(O)cc2oc1=O | > 100 µM | > 100 µM | > 100 µM | > 100 µM | > 100 µM | > 100 µM | > 100 µM | > 100 µM | > 100 µM | > 100 µM | > 100 µM |  |  |  |  |  |  |  | 
CC(CC(=O)Nc1ccc(NC(=O)CC(C)N=NC(N)=O)cc1)N=NC(N)=O (configuration not stated) | > 100 µM | > 100 µM | > 100 µM | > 100 µM | > 100 µM | > 100 µM | > 100 µM |  | > 100 µM | > 100 µM | > 100 µM |  |  |  |  |  |  |  | 
COc1cc([C@@H]2c3cc4c(cc3[C@@H](NCc3cccc(F)c3)C3COC(=O)[C@@H]32)OCO4)cc(OC)c1O (some centres not stated) | > 65 µM | 18.1 µM | 51.3 µM | > 65 µM | 17.9 µM | > 65 µM | 3.93 µM | 22.5 µM | 10.3 µM | > 65 µM | 7.89 µM |  |  |  |  |  |  |  | 
Cc1ccc(C)c(NC(=O)C(=O)Nn2c(=S)[nH]c3ccccc3c2=O)c1 | > 100 µM | > 100 µM | > 100 µM | > 100 µM | > 100 µM | > 100 µM | > 100 µM | > 100 µM | > 100 µM | > 100 µM | > 100 µM |  |  |  |  |  |  |  | 
COc1cc(CCc2ccncc2)cc(OC)c1OC | > 100 µM | > 100 µM | > 100 µM | > 100 µM | > 100 µM | > 100 µM | > 100 µM | > 100 µM | > 100 µM | > 100 µM | > 100 µM |  |  |  |  |  |  |  | 
C=CCCC(=O)CC(=O)OCc1ccccc1 | > 100 µM | > 100 µM | > 100 µM | > 100 µM | > 100 µM | > 100 µM | > 100 µM | > 100 µM | > 100 µM | > 100 µM | > 100 µM |  |  |  |  |  |  |  | 
COC(=O)C#CC(N)=O | > 100 µM | 36.4 µM | > 100 µM | > 100 µM | > 100 µM | > 100 µM | 19.8 µM | > 54.8 µM | > 100 µM | > 81.1 µM | > 100 µM |  |  |  |  |  |  |  | 
C/C(=N\Nc1n[nH]c(=S)n1N)c1c(O)cc(C)oc1=O | > 100 µM | > 100 µM |  | > 100 µM |  | > 100 µM | > 100 µM | > 100 µM | > 100 µM | > 100 µM | > 100 µM |  |  |  |  |  |  |  | 
CN1C/C(=C\c2ccc(C(=O)O)cc2)C(=O)/C(=C/c2ccc(C(=O)O)cc2)C1 | > 100 µM | > 100 µM | > 100 µM | > 100 µM | > 100 µM | > 100 µM | > 100 µM | > 100 µM | > 100 µM | > 100 µM | > 100 µM |  |  |  |  |  |  |  | 
Cc1nc(-n2nc(-c3ccccc3)cc2-c2ccccc2)sc1C(=O)CC(=O)C(=O)Nc1ccc(O)cc1 | > 100 µM | > 100 µM | > 100 µM | > 100 µM |  | > 100 µM | > 100 µM | > 100 µM | > 100 µM | > 100 µM | > 100 µM |  |  |  |  |  |  |  | 
N#C/C(=C1\OC(N)=C(c2ccc(Cl)cc2)C1=O)c1ccc(Cl)cc1 | 24.3 µM | 73.5 µM | 9.74 µM | 30.9 µM |  | 29.2 µM | 44.4 µM | 25.9 µM | 27.5 µM | 30.8 µM | 27.1 µM |  |  |  |  |  |  |  | 
CC1=CC(=O)N2C(OC[C@@H]2c2ccccc2)O1 (some centres not stated) | > 100 µM | > 100 µM |  | > 100 µM | > 100 µM | > 100 µM | > 100 µM | > 100 µM | > 100 µM | > 100 µM | > 100 µM |  |  |  |  |  |  |  | 
O/N=C1\C(=C\c2ccc3c(c2)OCCO3)CCCC1C(NO)c1ccc2c(c1)OCCO2 (configuration not stated) | 62.7 µM | 48.9 µM | > 100 µM | > 100 µM | 30.1 µM | > 100 µM | 71 µM | > 100 µM | 31.7 µM | > 100 µM |  |  |  |  |  |  |  |  | 
CC/C(C)=C1\CCC(CN(C)C)C1=O (configuration not stated) | 29.9 µM | 39.8 µM | 33.6 µM | 30.5 µM | 91.5 µM | > 100 µM | 43.7 µM | 53.4 µM | > 100 µM | 32.2 µM | 42.9 µM |  |  |  |  |  |  |  | 
CC1=C2C3OC(=O)C(C)C3C(O)C[C@@]2(C)C(=O)CC1 (some centres not stated) | > 100 µM | > 100 µM | > 100 µM | > 100 µM | > 100 µM | > 100 µM | > 100 µM | > 100 µM | > 100 µM | > 100 µM |  |  |  |  |  |  |  |  | 
CCCCCC/C(CC(=O)CCC(=O)NCCc1ccccc1)=N\Nc1ccc([N+](=O)[O-])cc1[N+](=O)[O-] | > 100 µM | 60.6 µM | > 100 µM | > 100 µM | > 100 µM | > 100 µM | 70.5 µM | > 100 µM | > 100 µM | > 100 µM | > 100 µM |  |  |  |  |  |  |  | 
CN(C)C(=S)/N=c1\ss/c(=N\S(=O)(=O)c2ccccc2)n1C | > 100 µM | > 100 µM | > 100 µM | > 100 µM | > 100 µM | > 100 µM | > 100 µM | > 100 µM | > 100 µM | > 100 µM | > 100 µM |  |  |  |  |  |  |  | 
COC(=O)Nc1nc2ccc(C(=O)c3cccs3)cc2[nH]1 | 18.6 µM | 19.8 µM and > 100 µM | > 100 µM | > 100 µM | 6.43 µM and 2.06 µM |  | 0.0753 µM and 0.415 µM | > 100 µM | 65.4 µM and > 100 µM | > 100 µM | 0.602 µM | 124 nM | 545 nM | 21.5 nM and 66.6 nM | 109 nM | 89.7 nM | 67.2 nM | 189 nM | 277 nM
